Laboratory results as given in patent publication US9512107B2, “Therapeutically active compositions and their methods of use” (Agios Pharmaceuticals, Inc., priority 2012, dated 2016).
Positions count from the first letter of the chain named. pIC50: −log10 of the molar value.

Assays:
IDH2 R172K = target: T1, IDH2 R172K (Homo sapiens, UniProt P48735, R172K); assay: IDH2 R172K enzymatic assay (NADPH cofactor depletion, diaphorase/resazurin readout); assay type: biochemical; settings: read-out: Enz R172K
T1 sequence (P48735 40-452 R172K): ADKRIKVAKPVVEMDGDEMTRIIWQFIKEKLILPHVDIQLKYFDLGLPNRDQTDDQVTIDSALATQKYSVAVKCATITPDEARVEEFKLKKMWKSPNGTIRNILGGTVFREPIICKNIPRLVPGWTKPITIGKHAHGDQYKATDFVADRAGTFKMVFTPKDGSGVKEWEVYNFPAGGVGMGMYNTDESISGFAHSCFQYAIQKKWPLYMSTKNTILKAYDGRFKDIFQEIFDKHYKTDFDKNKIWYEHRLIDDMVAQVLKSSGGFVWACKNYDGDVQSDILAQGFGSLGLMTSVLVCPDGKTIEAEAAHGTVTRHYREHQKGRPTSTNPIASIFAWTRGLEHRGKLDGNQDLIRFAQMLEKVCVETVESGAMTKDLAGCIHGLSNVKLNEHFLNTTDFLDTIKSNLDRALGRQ
Protocol: Compounds are assayed for IDH2 R172K inhibitory activity through a cofactor depletion assay. […] The reaction is terminated by the addition of a second enzyme, diaphorase, and a corresponding substrate, resazurin. Diaphorase reduces resazurin to the highly fluorescent resorufin with the concomitant oxidation of NADPH to NADP, both halting the IDH2 reaction by depleting the available cofactor pool and facilitating quantitation of the amount of cofactor remaining after a specific time period through quantitative production of an easily detected fluorophore.
The test compound is then incubated for one hour at room temperature with the enzyme; before starting the IDH2 reaction with the addition of 10 μl of substrate mix containing 50 μM NADPH and 6.3 mM α-KG in the buffer described above. After a further one hour of incubation at room temperature, the reaction is halted and the remaining NADPH measured through conversion of resazurin to resorufin by the addition of 25 μl Stop Mix (36 μg/ml diaphorase enzyme and 60 μM resazurin; in buffer).

IDH2 R140Q = target: T2, IDH2 R140Q (Homo sapiens, UniProt P48735, R140Q); assay: IDH2 R140Q enzymatic assay (cofactor depletion, similar format); assay type: biochemical; settings: for pIC50: read-out: Enz R140Q
T2 sequence (P48735 40-452 R140Q): T1 sequence (P48735 40-452 R172K) with R101Q, K133R

[1] = test system: U87MG pLVX-IDH2 R140Q-neo cells; assay: U87MG pLVX-IDH2 R140Q-neo cell based assay, 2-HG in media by LC-MS at 48 hours; settings: for pIC50: Homo sapiens, U-87 MG
In short: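 U87MG cells stably expressing IDH2 R140Q were seeded overnight, then exposed to compound at 0.2% final DMSO at 37 °C, 5% CO2. 2-HG in the medium was quantified by LC-MS at 48 h. Growth inhibition was read by CellTiter-Glo luminescence at 72 h.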

| Compound | pIC50 (IDH2 R172K) | pIC50 (IDH2 R140Q) | pIC50 [1] | Enz R140Q (IDH2 R140Q) | Cell R140Q [1] |
| --- | --- | --- | --- | --- | --- |
| CC(C)CCNc1nc(Nc2ccncc2)nc(-c2ccccc2)n1 [Compound 212, N^2-isopentyl-6-phenyl-N^4-(pyridin-4-yl)-1,3,5-triazine-2,4-diamine] | 6.00 to 7.00 | > 7.00 | > 7.00 |  |  |
| CC(C)Nc1nc(Nc2cccc(CC#N)c2)nc(-c2ccccc2)n1 [Compound 198, 2-(3-(4-(isopropylamino)-6-phenyl-1,3,5-triazin-2-ylamino)phenyl)acetonitrile] | 6.00 to 7.00 | > 7.00 | > 7.00 |  |  |
| O=C(Nc1nc(Nc2ccccc2)nc(-c2ccccc2)n1)C1CCCO1 (stereo not shown) [Compound 243, N-(4-phenyl-6-(phenylamino)-1,3,5-triazin-2-yl)tetrahydrofuran-2-carboxamide] | 5.00 to 6.00 | 6.00 to 7.00 |  |  |  |
| CC(C)Nc1nc(Nc2ccccc2C#N)nc(-c2ccccc2)n1 [Compound 165] | 5.00 to 6.00 | 6.00 to 7.00 |  |  |  |
| CC(C)Nc1nc(Nc2ccc(O)cc2)nc(-c2ccccc2)n1 [Compound 133] | < 5.00 | 6.00 to 7.00 |  |  |  |
| COC(C)(C)CNc1nc(Nc2ccncc2)nc(-c2ccccc2)n1 [Compound 252, N^2-(2-methoxy-2-methylpropyl)-6-phenyl-N^4-(pyridin-4-yl)-1,3,5-triazine-2,4-diamine] | 5.00 to 6.00 | 6.00 to 7.00 |  |  |  |
| Cc1cccc(C)c1-c1nc(Nc2ccccc2)nc(NC(C)C)n1 [Compound 117] | 5.00 to 6.00 | 6.00 to 7.00 |  |  |  |
| CC(C)Nc1nc(NC2CCOCC2)nc(-c2ccccc2)n1 [Compound 137] | 5.00 to 6.00 | 6.00 to 7.00 |  |  |  |
| COc1ccc(-c2nc(Nc3ccccc3)nc(NC(C)C)n2)cc1 [Compound 116] | 5.00 to 6.00 | 6.00 to 7.00 |  |  |  |
| c1ccc(-c2nc(Nc3ccncc3)nc(NC3CC3)n2)cc1 [Compound 217, N^2-cyclopropyl-6-phenyl-N^4-(pyridin-4-yl)-1,3,5-triazine-2,4-diamine] | 5.00 to 6.00 | > 7.00 |  |  |  |
| CCC(CO)Nc1nc(Nc2ccncc2)nc(-c2ccccc2)n1 (stereo not shown) [Compound 291, 2-(4-phenyl-6-(pyridin-4-ylamino)-1,3,5-triazin-2-ylamino)butan-1-ol] |  |  |  | No Fit | No Fit |
| c1ccc(-c2nc(Nc3ccncc3)nc(N[C@@H]3C[C@@H]4CC[C@H]3C4)n2)cc1 [Compound 295, N^2-((1S,2R,4R)-bicyclo[2.2.1]heptan-2-yl)-6-phenyl-N^4-(pyridin-4-yl)-1,3,5-triazine-2,4-diamine] |  | > 7.00 | > 7.00 |  |  |

The next lines start with results.

| pIC50 (IDH2 R172K) | pIC50 (IDH2 R140Q) | pIC50 [1] | Enz R140Q (IDH2 R140Q) | Compound | Cell R140Q [1] |
| --- | --- | --- | --- | --- | --- |
| > 7.00 | 6.00 to 7.00 | > 7.00 |  | CCC(=O)c1cc(Nc2nc(NC(C)C)nc(-c3cccc(C(F)(F)F)n3)n2)ccn1 [Compound 574, 1-{4-[4-Isopropylamino-6-(6-trifluoromethyl-pyridin-2-yl)-[1,3,5]triazin-2-ylamino]-pyridin-2-yl}-propan-1-one] |  |
| 6.00 to 7.00 | 5.00 to 6.00 | > 7.00 |  | COC(=O)N1CCC(Nc2nc(Nc3ccnc(C(F)(F)F)c3)nc(-c3cccc(C(F)(F)F)n3)n2)CC1 [Compound 577, 4-[4-(6-Trifluoromethyl-pyridin-2-yl)-6-(2-trifluoromethyl-pyridin-4-ylamino)-[1,3,5]triazin-2-ylamino]-piperidine-1-carboxylic acid methyl ester] |  |
| > 7.00 | 6.00 to 7.00 | > 7.00 |  | CC(CO)Nc1nc(Nc2ccnc(C(F)(F)F)c2)nc(-c2cccc(C(F)(F)F)n2)n1 (stereo not shown) [Compound 527, 2-[4-(6-Trifluoromethyl-pyridin-2-yl)-6-(2-trifluoromethyl-pyridin-4-ylamino)-[1,3,5]triazin-2-ylamino]-propan-1-ol] |  |
| 5.00 to 6.00 | 6.00 to 7.00 | > 7.00 |  | CCCn1cc(Nc2nc(NC(C)C)nc(-c3cccc(C(F)(F)F)n3)n2)cn1 [Compound 555, N-Isopropyl-N′-(1-propyl-1H-pyrazol-4-yl)-6-(6-trifluoromethyl-pyridin-2-yl)-[1,3,5]triazine-2,4-diamine] |  |
| > 7.00 | 6.00 to 7.00 | > 7.00 |  | CC(F)(F)c1cccc(-c2nc(NCC3CC3)nc(Nc3cc(F)cc(S(C)(=O)=O)c3)n2)n1 [Compound 612, N2-(cyclopropylmethyl)-6-(6-(1,1-difluoroethyl)pyridin-2-yl)-N4-(3-fluoro-5-(methylsulfonyl)phenyl)-1,3,5-triazine-2,4-diamine] |  |
| > 7.00 | 6.00 to 7.00 | > 7.00 |  | CC(C)Nc1nc(Nc2cc(F)cc(F)c2)nc(-c2cccc(C(C)(F)F)n2)n1 [Compound 583, 6-(6-(1,1-difluoroethyl)pyridin-2-yl)-N2-(3,5-difluorophenyl)-N4-isopropyl-1,3,5-triazine-2,4-diamine] |  |
| > 7.00 | 5.00 to 6.00 | > 7.00 |  | CC(C)Nc1nc(Nc2cncc(F)c2)nc(-c2cccc(C(F)(F)F)n2)n1 [Compound 503, N-(5-Fluoro-pyridin-3-yl)-N′-isopropyl-6-(6-trifluoromethyl-pyridin-2-yl)-[1,3,5]triazine-2,4-diamine] |  |
| 5.00 to 6.00 | 6.00 to 7.00 |  |  | CC(C)Nc1nc(Nc2ccnc(C(F)(F)F)c2)nc(-c2cc(Cl)cc(C(F)(F)F)c2)n1 [Compound 644, 6-(3-Chloro-5-trifluoromethyl-phenyl)-N-isopropyl-N′-(2-trifluoromethyl-pyridin-4-yl)-[1,3,5]triazine-2,4-diamine] |  |
| 5.00 to 6.00 |  | 6.00 to 7.00 |  | COc1cc(F)cc(-c2nc(Nc3ccnc(C(F)(F)F)c3)nc(NC(C)C)n2)c1 [Compound 662, 6-(3-fluoro-5-methoxyphenyl)-N2-isopropyl-N4-(2-(trifluoromethyl)pyridin-4-yl)-1,3,5-triazine-2,4-diamine] |  |
| 6.00 to 7.00 |  | 6.00 to 7.00 |  | COc1cc(Cl)cc(-c2nc(Nc3cc(F)cc(F)c3)nc(NC(C)C)n2)n1 [Compound 486, 6-(4-chloro-6-methoxypyridin-2-yl)-N^2-(3,5-difluorophenyl)-N^4-isopropyl-1,3,5-triazine-2,4-diamine] |  |
| > 7.00 |  | > 7.00 |  | CC(C)Nc1nc(Nc2ccnc(C(F)(F)F)c2)nc(-c2cc(O)cc(CO)c2)n1 [Compound 665, 3-(hydroxymethyl)-5-(4-(isopropylamino)-6-((2-(trifluoromethyl)pyridin-4-yl)amino)-1,3,5-triazin-2-yl)phenol] |  |
| > 7.00 |  | > 7.00 |  | CC(C)Nc1nc(Nc2ccnc(C(F)(F)F)c2)nc(-c2cccc(C(C)O)c2)n1 (stereo not shown) [Compound 663, 1-(3-(4-(isopropylamino)-6-((2-(trifluoromethyl)pyridin-4-yl)amino)-1,3,5-triazin-2-yl)phenyl)ethanol] |  |
|  | 6.00 to 7.00 | 6.00 to 7.00 |  | CC(C)Nc1nc(Nc2cccc(S(C)(=O)=O)c2)nc(-c2cccc(C3CC3)n2)n1 [Compound 397, 6-(6-cyclopropylpyridin-2-yl)-N^2-isopropyl-N^4-(3-(methylsulfonyl)phenyl)-1,3,5-triazine-2,4-diamine] |  |
|  | 6.00 to 7.00 | > 7.00 |  | CC(C)Nc1cc(Nc2nc(NC(C)C)nc(-c3ccccc3)n2)ccn1 [Compound 301, N^2-isopropyl-N^4-(2-(isopropylamino)pyridin-4-yl)-6-phenyl-1,3,5-triazine-2,4-diamine] |  |
|  | < 5.00 |  |  | COC1CC(Nc2nc(Nc3ccncc3)nc(-c3ccccc3)n2)C1 (stereo not shown) [Compound 305, N^2-(3-methoxycyclobutyl)-6-phenyl-N^4-(pyridin-4-yl)-1,3,5-triazine-2,4-diamine] | No Fit |
|  | 6.00 to 7.00 | > 7.00 |  | CNc1cccc(-c2nc(Nc3ccccc3)nc(NC(C)C)n2)n1 [Compound 331, N^2-isopropyl-6-(6-(methylamino)pyridin-2-yl)-N^4-phenyl-1,3,5-triazine-2,4-diamine] |  |
|  | 5.00 to 6.00 | 6.00 to 7.00 |  | CNc1cccc(-c2nc(Nc3cccc(S(C)(=O)=O)c3)nc(NC(C)C)n2)n1 [Compound 364, N^2-isopropyl-6-(6-(methylamino)pyridin-2-yl)-N^4-(3-(methylsulfonyl)phenyl)-1,3,5-triazine-2,4-diamine] |  |
